Legend:
Format in all cases: in vivo
[1] = system: green foxtail (Setaria viridis, SETVI); test: Post-emerge test, greenhouse herbicide activity screening; conditions: post-emerge, 14 days after application, rating scale 0-100
How it was run: (§1)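 Applied at 15–1000 g ai/ha from acetone in 187 l/ha spray volume. Post-emergence applications included 0.25% v/v non-ionic surfactant and reached plants sown 8–21 days before. Pre-emergence applications were incorporated by surface watering. Efficacy or crop damage was rated on a 0–100 scale after 14 days.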

[2] = system: ivyleaf morningglory (Ipomoea hederacea, IPOHE); test: as above; conditions: post-emerge, 14 days after application, rating scale 0-100
How it was run: as §1

[3] = system: sicklepod (Cassia obtusifolia, CASOB); test: as above; conditions: post-emerge, 14 days after application, rating scale 0-100
How it was run: as §1

[4] = system: barnyardgrass (Echinochloa crus-galli, ECHCG); test: as above; conditions: post-emerge, 14 days after application, rating scale 0-100
How it was run: as §1

[5] = system: large crabgrass (Digitaria sanguinalis, DIGSA); test: as above; conditions: post-emerge, 14 days after application, rating scale 0-100
How it was run: as §1

[6] = system: velvetleaf (Abutilon theophrasti, ABUTH); test: as above; conditions: post-emerge, 14 days after application, rating scale 0-100
How it was run: as §1

[7] = system: redroot pigweed (Amaranthus retroflexus, AMARE); test: as above; conditions: post-emerge, 14 days after application, rating scale 0-100
How it was run: as §1

[8] = system: johnsongrass (Sorghum halepense, SORHA); test: as above; conditions: post-emerge, 14 days after application, rating scale 0-100
How it was run: as §1

[9] = system: lambsquarters (Chenopodium album, CHEAL); test: as above; conditions: post-emerge, 14 days after application, rating scale 0-100
How it was run: as §1

[10] = system: green foxtail (Setaria viridis, SETVI); test: Pre-emerge test, greenhouse herbicide activity screening; conditions: pre-emerge, 14 days after application, scale 0-100
How it was run: (§2)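 Compounds in acetone were track-sprayed at 187 l/ha, 15–1000 g ai/ha, onto sandy loam pots. Pre-emerge seeds were sown one day before spraying, with surface watering afterwards. Post-emerge plants were at the 2–3 leaf stage and sprayed with 0.25% v/v non-ionic surfactant. Injury was rated 0–100 at 14 days.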

[11] = system: ivyleaf morningglory (Ipomoea hederacea, IPOHE); test: as above; conditions: pre-emerge, 14 days after application, scale 0-100
How it was run: as §2

[12] = system: sicklepod (Cassia obtusifolia, CASOB); test: as above; conditions: pre-emerge, 14 days after application, scale 0-100
How it was run: as §2

[13] = system: barnyardgrass (Echinochloa crus-galli, ECHCG); test: as above; conditions: pre-emerge, 14 days after application, scale 0-100
How it was run: as §2

[14] = system: large crabgrass (Digitaria sanguinalis, DIGSA); test: as above; conditions: pre-emerge, 14 days after application, scale 0-100
How it was run: as §2

[15] = system: velvetleaf (Abutilon theophrasti, ABUTH); test: as above; conditions: pre-emerge, 14 days after application, scale 0-100
How it was run: as §2

[16] = system: johnsongrass (Sorghum halepense, SORHA); test: as above; conditions: pre-emerge, 14 days after application, scale 0-100
How it was run: as §2

[17] = system: lambsquarters (Chenopodium album, CHEAL); test: as above; conditions: pre-emerge, 14 days after application, scale 0-100
How it was run: as §2

[18] = system: upland rice (Oryza sp., var. Tebonnet, RICE); test: Post-emerge test, crop safety; conditions: post-emerge, 14 days after application, rating scale 0-100
How it was run: as §2

[19] = system: field corn (Zea mays L., var. Dekalb 535, CORN); test: Post-emerge test, crop safety; conditions: post-emerge, 14 days after application, rating scale 0-100
How it was run: as §2

[20] = system: redroot pigweed (Amaranthus retroflexus, AMARE); test: Pre-emerge test, greenhouse herbicide activity screening; conditions: pre-emerge, 14 days after application, scale 0-100
How it was run: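 Sandy loam pots; pre-emerge: sown 1 d pre-spray, surface-watered after, then bottom-watered. Post-emerge: sown 8–21 d before, 2–3 leaf stage, + 0.25% v/v NIS, bottom-watered. Acetone, 187 l/ha track spray, 15–1000 g ai/ha. 0–100 injury score, day 14.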

[21] = system: upland rice (Oryza sp., var. Tebonnet, RICE); test: Pre-emerge test, crop safety; conditions: pre-emerge, 14 days after application, scale 0-100
How it was run: as §1

[22] = system: field corn (Zea mays L., var. Dekalb 535, CORN); test: Pre-emerge test, crop safety; conditions: pre-emerge, 14 days after application, scale 0-100
How it was run: as §1

Question: Which SETVI phytotoxicity rating ([1]; 63 g ai/ha) does the source give for `COc1c(Br)cc(F)c(-n2c(=O)cc(C(F)(F)F)n(C)c2=O)c1N(C(=O)C=Cc1ccccc1)C(=O)C=Cc1ccccc1` [2-178] here?
Answer: 0

Question: And the SETVI phytotoxicity rating ([1]; 250 g ai/ha)?
Answer: 0

Question: What about the IPOHE phytotoxicity rating ([2]; 63 g ai/ha) of the same compound?
Answer: 30

Question: And the IPOHE phytotoxicity rating ([2]; 250 g ai/ha)?
Answer: 20

Question: And the CASOB phytotoxicity rating ([3]; 63 g ai/ha)?
Answer: 0

Question: And the CASOB phytotoxicity rating ([3]; 250 g ai/ha)?
Answer: 0

Question: What about the ECHCG phytotoxicity rating ([4]; 63 g ai/ha) of the same compound?
Answer: 0

Question: What about the ECHCG phytotoxicity rating ([4]; 250 g ai/ha) of the same compound?
Answer: 0

Question: And the DIGSA phytotoxicity rating ([5]; 63 g ai/ha)?
Answer: 0

Question: And the DIGSA phytotoxicity rating ([5]; 250 g ai/ha)?
Answer: 0

Question: What about the ABUTH phytotoxicity rating ([6]; 63 g ai/ha) of the same compound?
Answer: 40

Question: What about the ABUTH phytotoxicity rating ([6]; 250 g ai/ha) of the same compound?
Answer: 50

Question: And the AMARE phytotoxicity rating ([7]; 63 g ai/ha)?
Answer: 50

Question: And the AMARE phytotoxicity rating ([7]; 250 g ai/ha)?
Answer: 70

Question: And the SORHA phytotoxicity rating ([8]; 63 g ai/ha)?
Answer: 0

Question: What about the SORHA phytotoxicity rating ([8]; 250 g ai/ha) of the same compound?
Answer: 0

Question: And the CHEAL phytotoxicity rating ([9]; 63 g ai/ha)?
Answer: 30

Question: What about the CHEAL phytotoxicity rating ([9]; 250 g ai/ha) of the same compound?
Answer: 40

Question: What about the “phytotoxicity rating SETVI” value ([10]; 63 g ai/ha) of the same compound?
Answer: 0

Question: What about the “phytotoxicity rating SETVI” value ([10]; 250 g ai/ha) of the same compound?
Answer: 0

Question: What about the “phytotoxicity rating IPOHE” value ([11]; 63 g ai/ha) of the same compound?
Answer: 0

Question: What about the “phytotoxicity rating IPOHE” value ([11]; 250 g ai/ha) of the same compound?
Answer: 0

Question: And the “phytotoxicity rating CASOB” value ([12]; 63 g ai/ha)?
Answer: 0

Question: What about the “phytotoxicity rating CASOB” value ([12]; 250 g ai/ha) of the same compound?
Answer: 0

Question: And the “phytotoxicity rating ECHCG” value ([13]; 63 g ai/ha)?
Answer: 0

Question: And the “phytotoxicity rating ECHCG” value ([13]; 250 g ai/ha)?
Answer: 0

Question: What about the “phytotoxicity rating DIGSA” value ([14]; 63 g ai/ha) of the same compound?
Answer: 0

Question: What about the “phytotoxicity rating DIGSA” value ([14]; 250 g ai/ha) of the same compound?
Answer: 0

Question: And the “phytotoxicity rating ABUTH” value ([15]; 63 g ai/ha)?
Answer: 0

Question: What about the “phytotoxicity rating ABUTH” value ([15]; 250 g ai/ha) of the same compound?
Answer: 0

Question: And the “phytotoxicity rating SORHA” value ([16]; 63 g ai/ha)?
Answer: 0

Question: What about the “phytotoxicity rating SORHA” value ([16]; 250 g ai/ha) of the same compound?
Answer: 0

Question: And the “phytotoxicity rating CHEAL” value ([17]; 63 g ai/ha)?
Answer: 20

Question: And the “phytotoxicity rating CHEAL” value ([17]; 250 g ai/ha)?
Answer: 0

Question: What about the “RICE phytotoxicity rating (crop damage)” value ([18]; 63 g ai/ha) of the same compound?
Answer: 0

Question: What about the “RICE phytotoxicity rating (crop damage)” value ([18]; 250 g ai/ha) of the same compound?
Answer: 0

Question: What about the “CORN phytotoxicity rating (crop damage)” value ([19]; 63 g ai/ha) of the same compound?
Answer: 0

Question: What about the “CORN phytotoxicity rating (crop damage)” value ([19]; 250 g ai/ha) of the same compound?
Answer: 0

Question: What about the “phytotoxicity rating AMARE” value ([20]; 63 g ai/ha) of the same compound?
Answer: 0

Question: What about the “phytotoxicity rating AMARE” value ([20]; 250 g ai/ha) of the same compound?
Answer: 0

Question: And the “phytotoxicity rating RICE (crop damage)” value ([21]; 63 g ai/ha)?
Answer: 0

Question: What about the “phytotoxicity rating RICE (crop damage)” value ([21]; 250 g ai/ha) of the same compound?
Answer: 0

Question: What about the “phytotoxicity rating CORN (crop damage)” value ([22]; 63 g ai/ha) of the same compound?
Answer: 0

Question: What about the “phytotoxicity rating CORN (crop damage)” value ([22]; 250 g ai/ha) of the same compound?
Answer: 0

Question: How did the SETVI phytotoxicity rating ([1]; 63 g ai/ha) turn out when `COc1c(C#N)cc(F)c(-n2c(=O)cc(C(F)(F)F)n(C)c2=O)c1NC(=O)C=Cc1ccccc1` [2-179] was run?
Answer: 30

Question: What about the SETVI phytotoxicity rating ([1]; 250 g ai/ha) of the same compound?
Answer: 55

Question: What about the IPOHE phytotoxicity rating ([2]; 63 g ai/ha) of the same compound?
Answer: 80

Question: And the IPOHE phytotoxicity rating ([2]; 250 g ai/ha)?
Answer: 100

Question: And the CASOB phytotoxicity rating ([3]; 63 g ai/ha)?
Answer: 80

Question: And the CASOB phytotoxicity rating ([3]; 250 g ai/ha)?
Answer: 100

Question: And the ECHCG phytotoxicity rating ([4]; 63 g ai/ha)?
Answer: 70

Question: What about the ECHCG phytotoxicity rating ([4]; 250 g ai/ha) of the same compound?
Answer: 50

Question: And the DIGSA phytotoxicity rating ([5]; 63 g ai/ha)?
Answer: 0

Question: What about the DIGSA phytotoxicity rating ([5]; 250 g ai/ha) of the same compound?
Answer: 50

Question: What about the ABUTH phytotoxicity rating ([6]; 63 g ai/ha) of the same compound?
Answer: 100

Question: And the ABUTH phytotoxicity rating ([6]; 250 g ai/ha)?
Answer: 100

Question: And the AMARE phytotoxicity rating ([7]; 63 g ai/ha)?
Answer: 100

Question: What about the AMARE phytotoxicity rating ([7]; 250 g ai/ha) of the same compound?
Answer: 100

Question: What about the SORHA phytotoxicity rating ([8]; 63 g ai/ha) of the same compound?
Answer: 10

Question: What about the CHEAL phytotoxicity rating ([9]; 63 g ai/ha) of the same compound?
Answer: 80

Question: What about the CHEAL phytotoxicity rating ([9]; 250 g ai/ha) of the same compound?
Answer: 100

Question: And the “phytotoxicity rating SETVI” value ([10]; 63 g ai/ha)?
Answer: 50

Question: And the “phytotoxicity rating SETVI” value ([10]; 250 g ai/ha)?
Answer: 90

Question: What about the “phytotoxicity rating IPOHE” value ([11]; 63 g ai/ha) of the same compound?
Answer: 60

Question: What about the “phytotoxicity rating IPOHE” value ([11]; 250 g ai/ha) of the same compound?
Answer: 70

Question: What about the “phytotoxicity rating CASOB” value ([12]; 63 g ai/ha) of the same compound?
Answer: 30

Question: What about the “phytotoxicity rating CASOB” value ([12]; 250 g ai/ha) of the same compound?
Answer: 100

Question: And the “phytotoxicity rating ECHCG” value ([13]; 63 g ai/ha)?
Answer: 20

Question: What about the “phytotoxicity rating ECHCG” value ([13]; 250 g ai/ha) of the same compound?
Answer: 85

Question: What about the “phytotoxicity rating DIGSA” value ([14]; 63 g ai/ha) of the same compound?
Answer: 20

Question: And the “phytotoxicity rating DIGSA” value ([14]; 250 g ai/ha)?
Answer: 95

Question: What about the “phytotoxicity rating ABUTH” value ([15]; 63 g ai/ha) of the same compound?
Answer: 100

Question: And the “phytotoxicity rating ABUTH” value ([15]; 250 g ai/ha)?
Answer: 100

Question: What about the “phytotoxicity rating SORHA” value ([16]; 63 g ai/ha) of the same compound?
Answer: 30

Question: What about the “phytotoxicity rating SORHA” value ([16]; 250 g ai/ha) of the same compound?
Answer: 95

Question: And the “phytotoxicity rating CHEAL” value ([17]; 63 g ai/ha)?
Answer: 100

Question: What about the “phytotoxicity rating CHEAL” value ([17]; 250 g ai/ha) of the same compound?
Answer: 100

Question: What about the “RICE phytotoxicity rating (crop damage)” value ([18]; 63 g ai/ha) of the same compound?
Answer: 30

Question: And the “RICE phytotoxicity rating (crop damage)” value ([18]; 250 g ai/ha)?
Answer: 60

Question: And the “CORN phytotoxicity rating (crop damage)” value ([19]; 63 g ai/ha)?
Answer: 15

Question: What about the “CORN phytotoxicity rating (crop damage)” value ([19]; 250 g ai/ha) of the same compound?
Answer: 15

Question: And the “phytotoxicity rating AMARE” value ([20]; 63 g ai/ha)?
Answer: 100

Question: And the “phytotoxicity rating AMARE” value ([20]; 250 g ai/ha)?
Answer: 100

Question: And the “phytotoxicity rating RICE (crop damage)” value ([21]; 63 g ai/ha)?
Answer: 20

Question: What about the “phytotoxicity rating RICE (crop damage)” value ([21]; 250 g ai/ha) of the same compound?
Answer: 60

Question: What about the “phytotoxicity rating CORN (crop damage)” value ([22]; 63 g ai/ha) of the same compound?
Answer: 0

Question: What about the “phytotoxicity rating CORN (crop damage)” value ([22]; 250 g ai/ha) of the same compound?
Answer: 10
